# Target: T1, IKBKB (IKKβ) (Homo sapiens, UniProt O14920)
# T1 construct: purchased Life Technologies (assay performed by the vendor)
# T1 sequence (O14920 1-756): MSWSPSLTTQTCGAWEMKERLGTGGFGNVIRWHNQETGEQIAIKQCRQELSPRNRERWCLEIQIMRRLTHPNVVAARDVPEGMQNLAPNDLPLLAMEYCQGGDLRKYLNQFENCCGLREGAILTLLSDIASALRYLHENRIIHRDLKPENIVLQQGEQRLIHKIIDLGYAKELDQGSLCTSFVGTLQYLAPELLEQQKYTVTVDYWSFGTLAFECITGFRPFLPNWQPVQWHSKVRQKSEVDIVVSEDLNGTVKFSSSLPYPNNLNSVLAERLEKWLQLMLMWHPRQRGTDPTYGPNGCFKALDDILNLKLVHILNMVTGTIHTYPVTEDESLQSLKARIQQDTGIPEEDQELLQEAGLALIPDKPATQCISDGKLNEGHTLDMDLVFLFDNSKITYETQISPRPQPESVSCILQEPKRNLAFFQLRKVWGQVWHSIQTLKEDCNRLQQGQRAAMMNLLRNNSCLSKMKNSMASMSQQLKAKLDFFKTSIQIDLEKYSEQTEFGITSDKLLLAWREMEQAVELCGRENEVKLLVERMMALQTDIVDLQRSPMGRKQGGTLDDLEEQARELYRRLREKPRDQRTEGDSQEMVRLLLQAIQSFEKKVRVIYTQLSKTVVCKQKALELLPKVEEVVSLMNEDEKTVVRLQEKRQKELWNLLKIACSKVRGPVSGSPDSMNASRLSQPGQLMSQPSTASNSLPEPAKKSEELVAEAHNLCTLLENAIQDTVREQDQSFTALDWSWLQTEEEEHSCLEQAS
# Experiment: Z'-LYTE IKKβ assay (Life Technologies)
# Format: biochemical
# Conditions: not given
# Description: IKKα and IKKβ inhibitory activity was determined using three different assays: a dissociation enhanced ligand fluorescent immunoassay (DELFIA) based on the protocol of HTScan™ IKKβ Kinase Assay (Cell Signaling Technology, USA); an Adapta IKKα assay (performed by Life Technologies); a Z′-LYTE™ IKKβ assay (performed by Life Technologies).
# The reaction was performed in low volume NBS, black 384-well plates (Corning model 4514).
# The test compounds were screened in 1% DMSO (final) in the well. For 10 point titrations, 3-fold serial dilutions were conducted from the starting concentration of 50 mM.
# The 2× IKBKB (IKKβ)/Ser/Thr 05 mixture was prepared in 50 mM HEPES pH 7.5, 0.01% BRIJ-35, 10 mM MgCl2, 1 mM EGTA. The final 10 μL Kinase Reaction consisted of 0.62-4 ng IKBKB (IKKβ) and 2 μM Ser/Thr 05 in 50 mM HEPES pH 7.5, 0.01% BRIJ-35, 10 mM MgCl2, 1 mM EGTA.
# 5 μL of 2× Kinase reaction was incubated with 2.5 μL of ATP solution diluted to a 4× working concentration in Kinase Buffer (50 mM HEPES pH 7.5, 0.01% BRIJ-35, 10 mM MgCl2, 1 mM EGTA) in the presence of […] of 100× test compound in 100% DMSO and 2.4 μL of Kinase buffer.
# The resulting kinase reaction was allowed to incubate for 1 hour at room temperature before 5 μL of a 1:64 dilution of Development Reagent B was added and the resulting Development Reaction was incubated for another hour at room temperature. Then the plate was read on a fluorescence plate reader and the data analysed.
# A ratiometric method, which calculated the Emission Ratio of donor emission (i.e. coumarin) to acceptor emission (i.e. fluorescein) after excitation of the donor fluorophore at 400 nm, was used to quantitate reaction progress, as shown in the equation below.
row,SMILES,IC50 [µM]
1,"C#Cc1cc(-c2ccnc3[nH]ccc23)cc2c(N)n[nH]c12 [Example 200, 7-Ethynyl-5-(1H-pyrrolo[2,3-b]pyridin-4-yl)-1H-indazol-3-amine]",0.158
2,"CC(C)(C)C#Cc1cc(-c2ccnc3[nH]ccc23)cc2c(N)n[nH]c12 [Example 201, 7-(3,3-Dimethylbut-1-yn-1-yl)-5-(1H-pyrrolo[2,3-b]pyridin-4-yl)-1H-indazol-3-amine]",1.2
3,"CC(C)(O)C#Cc1cc(-c2ccnc3[nH]ccc23)cc2c(N)n[nH]c12 [Example 206, 4-(3-Amino-5-(1H-pyrrolo[2,3-b]pyridin-4-yl)-1H-indazol-7-yl)-2-methylbut-3-yn-2-ol]",0.294
4,"Nc1n[nH]c2c(C#CCCCN3CCCCC3)cc(-c3ccnc4[nH]ccc34)cc12 [Example 212, 7-(5-(Piperidin-1-yl)pent-1-yn-1-yl)-5-(1H-pyrrolo[2,3-b]pyridin-4-yl)-1H-indazol-3-amine]",1.14
5,"Nc1n[nH]c2ccc(-c3ccnc4[nH]c(C5CCCCC5)cc34)cc12 [Example 219, 5-(2-Cyclohexyl-1H-pyrrolo[2,3-b]pyridin-4-yl)-1H-indazol-3-amine]",0.28
6,"Nc1n[nH]c2ccc(-c3ccnc4[nH]c(CCC5CCCCC5)cc34)cc12 [Example 222, 5-(2-(2-Cyclohexylethyl)-1H-pyrrolo[2,3-b]pyridin-4-yl)-1H-indazol-3-amine]",0.268
7,Nc1n[nH]c2ccc(-c3ccnc4[nH]c(CO)cc34)cc12 [Example 224],0.028
8,"CC(C)(C)OCc1cc2c(-c3ccc4[nH]nc(N)c4c3)ccnc2[nH]1 [Example 227, 5-(2-(tert-Butoxymethyl)-1H-pyrrolo[2,3-b]pyridin-4-yl)-1H-indazol-3-amine]",0.388

# Now from value to molecule:
row,IC50 [µM],SMILES
1,0.47,"Nc1n[nH]c2c(C#CC3CC3)cc(-c3ccnc4[nH]ccc34)cc12 [Example 202, 7-(Cyclopropylethynyl)-5-(1H-pyrrolo[2,3-b]pyridin-4-yl)-1H-indazol-3-amine]"
2,1.53,"Nc1n[nH]c2c(C#CC3CCCC3)cc(-c3ccnc4[nH]ccc34)cc12 [Example 203, 7-(Cyclopentylethynyl)-5-(1H-pyrrolo[2,3-b]pyridin-4-yl)-1H-indazol-3-amine]"
3,13.5,"Nc1n[nH]c2c(C#CC3CCCCC3)cc(-c3ccnc4[nH]ccc34)cc12 [Example 204, 7-(Cyclohexylethynyl)-5-(1H-pyrrolo[2,3-b]pyridin-4-yl)-1H-indazol-3-amine]"
4,1.03,"Nc1n[nH]c2c(C#CCCCN3CCOCC3)cc(-c3ccnc4[nH]ccc34)cc12 [Example 210, 7-(5-Morpholinopent-1-yn-1-yl)-5-(1H-pyrrolo[2,3-b]pyridin-4-yl)-1H-indazol-3-amine]"
5,0.017,"Nc1n[nH]c2ccc(-c3ccnc4[nH]c(C5CC5)cc34)cc12 [Example 218, 5-(2-Cyclopropyl-1H-pyrrolo[2,3-b]pyridin-4-yl)-1H-indazol-3-amine]"
6,0.483,"CC(C)(C)Cc1cc2c(-c3ccc4[nH]nc(N)c4c3)ccnc2[nH]1 [Example 220, 5-(2-Neopentyl-1H-pyrrolo[2,3-b]pyridin-4-yl)-1H-indazol-3-amine]"
7,0.655,"Nc1n[nH]c2ccc(-c3ccnc4[nH]c(CC5CCCCC5)cc34)cc12 [Example 221, 5-(2-(Cyclohexylmethyl)-1H-pyrrolo[2,3-b]pyridin-4-yl)-1H-indazol-3-amine]"
8,0.032,"Nc1n[nH]c2ccc(-c3ccnc4[nH]c(C5CCOCC5)cc34)cc12 [Example 228, 5-(2-(tetrahydro-2H-pyran-4-yl)-1H-pyrrolo[2,3-b]pyridin-4-yl)-1H-indazol-3-amine]"

# Same assay, conditions: Life Technologies assay
row,SMILES,IC50 [µM]
1,"Nc1nccc(-c2ccc3[nH]nc(N)c3c2)c1C#CCCO [Example 84, 4-(2-Amino-4-(3-amino-1H-indazol-5-yl)pyridine-3-yl)but-3-yn-1-ol]",0.053
2,"CC(C)(O)C#Cc1c(-c2ccc3[nH]nc(N)c3c2)ccnc1N [Example 87, 4-(2-Amino-4-(3-amino-1H-indazol-5-yl)pyridine-3-yl)-2-methylbut-3-yn-2-ol]",0.036
3,"CC(C)(C)OCC#Cc1c(-c2ccc3[nH]nc(N)c3c2)ccnc1N [Example 88, 5-(2-Amino-3-(3-(tert-butoxy)prop-1-yn-1-yl)pyridine-4-yl)-1H-indazol-3-amine]",0.442
4,"Nc1nccc(-c2ccc3[nH]nc(N)c3c2)c1C#CC1(O)CCCCCC1 [Example 91, 1-((2-Amino-4-(3-amino-1H-indazol-5-yl)pyridine-3-yl)ethynyl)cycloheptan-1-ol]",0.505
5,"CC(C)(N)C#Cc1c(-c2ccc3[nH]nc(N)c3c2)ccnc1N [Example 92, 5-(2-Amino-3-(3-amino-3-methylbut-1-yn-1-yl)pyridin-4-yl)-1H-indazol-3-amine]",0.087
6,"Nc1nccc(-c2ccc3[nH]nc(N)c3c2)c1C#CCCN1CCCCC1 [Example 93, 5-(2-Amino-3-(4-(piperidin-1-yl)but-1-yn-1-yl)pyridin-4-yl)-1H-indazol-3-amine]",0.254
7,"Nc1cc(-c2cc(-c3ccccc3)c3[nH]nc(N)c3c2)ccn1 [Example 104, 5-(2-Aminopyridin-4-yl)-7-phenyl-1H-indazol-3-amine]",0.162

# Continued, values first:
row,IC50 [µM],SMILES
1,0.065,"CC(C)(C)C#Cc1c(-c2ccc3[nH]nc(N)c3c2)ccnc1N [Example 72, 5-(2-Amino-3-(3,3-dimethylbut-1-yn-1-yl)pyridine-4-yl)-1H-indazol-3-amine]"
2,0.206,"Nc1nccc(-c2ccc3[nH]nc(N)c3c2)c1C#CC1CCCC1 [Example 73, 5-(2-Amino-3-(cyclopentylethynyl)pyridine-4-yl)-1H-indazol-3-amine]"
3,0.342,"Nc1nccc(-c2ccc3[nH]nc(N)c3c2)c1C#CC1CCCCC1 [Example 74, 5-(2-Amino-3-(cyclohexylethynyl)pyridine-4-yl)-1H-indazol-3-amine]"
4,0.101,"Nc1nccc(-c2ccc3[nH]nc(N)c3c2)c1C#Cc1ccccc1 [Example 75, 5-(2-Amino-3-(phenylethynyl)pyridine-4-yl)-1H-indazol-3-amine]"
5,0.036,"Nc1nccc(-c2ccc3[nH]nc(N)c3c2)c1C#CCO [Example 83, 3-(2-Amino-4-(3-amino-1H-indazol-5-yl)pyridine-3-yl)prop-2-yn-1-ol]"
6,0.025,"Nc1nccc(-c2ccc3[nH]nc(N)c3c2)c1C#CCCCO [Example 85, 5-(2-Amino-4-(3-amino-1H-indazol-5-yl)pyridine-3-yl)pent-4-yn-1-ol]"
7,0.205,"Nc1nccc(-c2ccc3[nH]nc(N)c3c2)c1C#CC1(O)CCCCC1 [Example 90, 1-((2-Amino-4-(3-amino-1H-indazol-5-yl)pyridine-3-yl)ethynyl)cyclohexan-1-ol]"
8,0.545,"Nc1nccc(-c2ccc3[nH]nc(N)c3c2)c1C#CCCCN1CCCCC1 [Example 95, 5-(2-Amino-3-(5-(piperidin-1-yl)pent-1-yn-1-yl)pyridin-4-yl)-1H-indazol-3-amine]"
9,0.705,"Nc1nccc(-c2ccc3[nH]nc(N)c3c2)c1C#CCCCN1CCOCC1 [Example 96, 5-(2-Amino-3-(5-morpholinopent-1-yn-1-yl)pyridin-4-yl)-1H-indazol-3-amine]"
10,0.264,"Nc1nccc(-c2ccc3[nH]nc(N)c3c2)c1C#CCCC(=O)N1CCOCC1 [Example 99, 5-(2-Amino-4-(3-amino-1H-indazol-5-yl)pyridine-3-yl)-1-morpholinopent-4-yn-1-one]"
11,0.135,"Nc1cc(-c2cc(-c3ccoc3)c3[nH]nc(N)c3c2)ccn1 [Example 129, 5-(2-Aminopyridin-4-yl)-7-(furan-3-yl)-1H-indazol-3-amine]"
12,3.09,"CC(C)(O)C#Cc1cc(-c2ccnc(N)c2)cc2c(N)n[nH]c12 [Example 140, 4-(3-Amino-5-(2-aminopyridin-4-yl)-1H-indazol-7-yl)-2-methylbut-3-yn-2-ol]"
